Non-standard residues stand in square brackets, D forms with d. Residues, ends and D or L forms follow the SMILES beside them. *: point of attachment. Cyclohexanoyl(1S,3S-3-NH2) = N[C@H]1CCC[C@H](C(=O)*)C1; Trp(5-OH) = N[C@@H](Cc1c[nH]c2ccc(O)cc12)C(=O)O; NH(4-morpholinophenyl) = c1cc(N2CCOCC2)ccc1N*; Bip = N[C@@H](Cc1ccc(-c2ccccc2)cc1)C(=O)O; hArg = N=C(N)NCCCC[C@H](N)C(=O)O
How the values were obtained:
[1] = system: motor neurons co-cultured with iAstrocytes derived from sALS patients; format: cell-based, mouse; conditions: 100 μM, 3 days co-culture
EphA4 = conditions: cited from earlier work
[2] = system: SOD1(G93A) transgenic mice; conditions: daily in vivo administration; cited from earlier work
EphA4-LBD = EphA4-LBD (Homo sapiens, UniProt P54764, C204A); experiment: 2D [13C,1H] NMR chemical shift perturbations with 13Cε-Met labeled EphA4-LBD
Chain of EphA4-LBD (P54764 29-209 C204A): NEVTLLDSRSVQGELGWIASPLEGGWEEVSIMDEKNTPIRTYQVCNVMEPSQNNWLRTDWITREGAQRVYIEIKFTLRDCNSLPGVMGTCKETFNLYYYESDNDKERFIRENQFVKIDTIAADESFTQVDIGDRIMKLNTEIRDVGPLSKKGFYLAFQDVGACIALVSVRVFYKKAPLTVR

SMILES | protection of motor neurons from sALS iAstrocytes (motor neuron survival) [1] | agonistic activity for EphA4 in primary cortical neurons (EphA4) | survival [2] | Kd (EphA4-LBD) [nM]
COc1ccc2[nH]cc(CCNC(=O)[C@H](Cc3ccncc3)NC(=O)[C@H](Cc3ccc(Cl)cc3)NC(=O)[C@H](Cc3c[nH]c4ccc(O)cc34)NC(=O)CCCN)c2c1 [123C4] | able to protect mouse motor neurons | induced receptor phosphorylation and growth cone collapse | significantly prolonged survival | –
N=C(N)NCCCC[C@H](NC(=O)[C@H](Cc1ccc(-c2ccccc2)cc1)NC(=O)[C@H](Cc1c[nH]c2ccc(O)cc12)NC(=O)[C@H]1CCC[C@H](N)C1)C(=O)NCC(=O)Nc1ccc(N2CCOCC2)cc1 [compound 33] ({Cyclohexanoyl(1S,3S-3-NH2)}-[Trp(5-OH)][Bip][hArg]G-{NH(4-morpholinophenyl)}) | – | – | – | < 60

Reference: publication PMC8555409 (Journal of medicinal chemistry, 2021)
